These results are taken from US8883826B2, “Alkynyl derivatives as modulators of metabotropic glutamate receptors” (Addex Pharma SA, priority 2004, dated 2014).

The target of data set [1] is T1, mGluR5 (Rattus norvegicus, UniProt P31424).
T1 construct: tissue Charles River Laboratories; host or cells: rat brain cortex membranes (Sprague-Dawley)
The data set can be described thus: mGluR5 binding assay ([3H]-MPEP radioligand competition). The following applies: competition with 3 nM [3H]-MPEP, rat brain cortical membranes, 1 h at 4 °C; mean of at least three independent experiments in duplicate. The gist of the method:
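Rat cortical membranes (50 μg) were incubated 1 h at 4 °C with 3 nM [3H]-MPEP and compound (0.003 nM-30 μM, 8 points) in HEPES buffer pH 7.4 with Mg2+, Ca2+ and NaCl. 30 μM MPEP defined non-specific binding, and bound label was counted after filtration. IC50 came from non-linear regression, as the mean of ≥3 experiments run in duplicate.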
In general terms: In a radioligand displacement assay an active substance lowers the binding of a labelled ligand.

SMILES strings stand for the structures.

T1 sequence (P31424 21-1203): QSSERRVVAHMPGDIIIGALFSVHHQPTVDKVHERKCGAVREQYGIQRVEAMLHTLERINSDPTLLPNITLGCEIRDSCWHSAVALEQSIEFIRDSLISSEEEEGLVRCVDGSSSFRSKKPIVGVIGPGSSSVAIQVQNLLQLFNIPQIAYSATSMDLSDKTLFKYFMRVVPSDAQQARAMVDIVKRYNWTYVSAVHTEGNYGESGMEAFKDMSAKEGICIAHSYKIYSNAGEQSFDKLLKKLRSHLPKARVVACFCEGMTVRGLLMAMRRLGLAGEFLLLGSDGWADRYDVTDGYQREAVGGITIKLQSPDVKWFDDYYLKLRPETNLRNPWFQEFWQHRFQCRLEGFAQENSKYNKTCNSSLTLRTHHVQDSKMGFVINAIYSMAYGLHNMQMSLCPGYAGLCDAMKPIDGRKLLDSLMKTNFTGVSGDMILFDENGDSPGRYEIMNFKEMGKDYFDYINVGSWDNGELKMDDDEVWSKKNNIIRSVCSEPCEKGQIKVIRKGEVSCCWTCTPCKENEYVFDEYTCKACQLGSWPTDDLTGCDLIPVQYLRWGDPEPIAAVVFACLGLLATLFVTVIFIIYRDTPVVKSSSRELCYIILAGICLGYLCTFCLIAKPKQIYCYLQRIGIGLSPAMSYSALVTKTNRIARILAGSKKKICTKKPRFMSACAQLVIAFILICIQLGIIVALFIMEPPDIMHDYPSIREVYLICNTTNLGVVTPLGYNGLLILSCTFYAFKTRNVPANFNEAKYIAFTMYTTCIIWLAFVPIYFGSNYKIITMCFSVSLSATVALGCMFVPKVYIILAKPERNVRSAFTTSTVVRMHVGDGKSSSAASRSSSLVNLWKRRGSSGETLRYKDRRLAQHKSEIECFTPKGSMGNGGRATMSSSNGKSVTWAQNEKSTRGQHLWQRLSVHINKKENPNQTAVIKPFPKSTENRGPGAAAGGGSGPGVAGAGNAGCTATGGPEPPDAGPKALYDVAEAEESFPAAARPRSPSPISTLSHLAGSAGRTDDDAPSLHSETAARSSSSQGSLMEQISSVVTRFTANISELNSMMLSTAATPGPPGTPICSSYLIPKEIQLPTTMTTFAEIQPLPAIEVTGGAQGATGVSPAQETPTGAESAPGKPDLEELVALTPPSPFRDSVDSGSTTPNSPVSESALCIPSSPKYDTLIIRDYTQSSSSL

As a reminder, the IC50 is the concentration needed to halve the response being measured. Lower therefore signals higher potency. In general, melting point refers to the temperature, or range, at which the solid turns liquid. In turn, `C(#Cc1ccccn1)CCc1nc2ccccc2o1.Cl` [Example 8, 2-(4-(Pyridin-2-yl)but-3-ynyl)benzo[d]oxazole Hydrochloride] yielded a melting point of 143.5 to 145 °C. Also, the IC50 in data set [1] is below 0.05 µM.
`Cc1nc(C#CCCc2ccccc2)c[nH]1` [Example 11, 2-Methyl-4-(4-phenylbut-1-ynyl)-1H-imidazole] registered a melting point of 124 to 126 °C.
Compound `CN(C(=O)CCC#Cc1ccccn1)c1ccccc1` [Example 12, N-Methyl-N-phenyl-5-(pyridin-2-yl)pent-4-ynamide] came in with a melting point of 68 to 71 °C. For the same compound, the IC50 in data set [1] is below 10 µM.
Regarding `C(#Cc1ccccn1)CCn1nnc(-c2ccccc2)n1` [Example 32, 2-(4-(5-Phenyl-2H-tetrazol-2-yl)but-1-ynyl)pyridine], the melting point is 71 to 73 °C. The IC50 in data set [1] is below 10 µM.
On the same counts, the results for `O=C(CCC#Cc1ccccn1)Nc1ccc(F)cc1` [Example 34, N-(4-Fluorophenyl)-5-(pyridine-2-yl)pent-4-ynamide] are 189.9 to 190.2 °C and below 1 µM.
On the same counts, the results for `C(#Cc1ccccn1)CCc1nc2ccccc2s1` [Example 35, 2-(4-(Pyridin-2-yl)but-3-ynyl)benzo[d]thiazole] are 98.5 to 99.4 °C and below 0.05 µM.
`Clc1ccc2nc(CCC#Cc3ccccn3)oc2c1` [Example 36, 6-Chloro-(2-(4-pyridin-2-yl)but-3-ynyl)benzo[d]oxazole] displayed a melting point of 101.5 to 102.2 °C. Besides, the IC50 in data set [1] is below 10 µM.
On the same counts, the results for `Fc1ccc2oc(CCC#Cc3ccccn3)nc2c1` [Example 37, 5-Fluoro-(2-(4-pyridin-2-yl)but-3-ynyl)benzo[d]oxazole] are 100.1 to 101 °C and below 10 µM.
In the same order, the values of `Fc1ccc(C#CCCC#Cc2ccccn2)cc1` [Example 38, 2-(6-(4-Fluorophenyl)hexa-1,5-diynyl)pyridine] are 68 to 69 °C and below 10 µM.
As for `O=c1n(CCC#Cc2ccccn2)nc2ccccn12` [Example 39, 2-(4-(Pyridin-2-yl)but-3-ynyl)-[1,2,4]triazolo[4,3-a]pyridin-3(2H)-one], the melting point is 95.5 to 96 °C.
The compound `Clc1ccc(-c2noc(CCC#Cc3ccccn3)n2)cc1` [Example 47, 2-(4-(3-(4-Chlorophenyl)-1,2,4-oxadiazol-5-yl)but-1-ynyl)pyridine] gave a melting point of 75 to 77 °C. In data set [1], this compound registered an IC50 below 10 µM.
In the same order, the values of `C(#Cc1ccccn1)CCc1nc(-c2ccc3ccccc3c2)no1` [Example 51, 2-(4-(3-(Naphthalen-2-yl)-1,2,4-oxadiazol-5-yl)but-1-ynyl)pyridine] are 76 to 78 °C and below 10 µM.
In the same order, the values of `Clc1ccc(-c2noc(CCC#Cc3ccccn3)n2)c(Cl)c1` [Example 57, 2-(4-(3-(2,4-Dichlorophenyl)-1,2,4-oxadiazol-5-yl)but-1-ynyl)pyridine] are 77 to 78 °C and below 10 µM.
In the same order, the values of `Cc1ccc(F)cc1-c1noc(CCC#Cc2ccccn2)n1` [Example 59, 2-(4-(3-(5-Fluoro-2-methylphenyl)-1,2,4-oxadiazol-5-yl)but-1-ynyl)pyridine] are 90 to 91 °C and below 10 µM.
Consider `O=c1ccccn1CCC#Cc1ccccn1` [Example 198, 1-(4-(Pyridin-2-yl)but-3-ynyl)pyridin-2(1H)-one], for which the IC50 in data set [1] is below 10 µM.
On the same count and under the same terms, under `CN(CCC#Cc1ccccn1)C(=O)c1cccc(F)c1` [Example 200, 3-Fluoro-N-methyl-N-(4-(pyridin-2-yl)but-3-ynyl)benzamide] stands below 10 µM.
Same read-out and setting: the value for `CN(CCC#Cc1ccccn1)C(=O)c1ccccc1C(F)(F)F` [Example 202, N-Methyl-N-(4-(pyridin-2-yl)but-3-ynyl)-2-(trifluoromethyl)benzamide] was below 10 µM.
The same measure, in the same setting: under `CN(CCC#Cc1ccccn1)C(=O)c1ccccc1Cl` [Example 204, 2-Chloro-N-methyl-N-(4-(pyridin-2-yl)but-3-ynyl)benzamide] stands below 10 µM; under `CN(CCC#Cc1ccccn1)C(=O)c1cccc(Cl)c1` [Example 205, 3-Chloro-N-methyl-N-(4-(pyridin-2-yl)but-3-ynyl)benzamide], below 10 µM.
In data set [1], `CN(CCC#Cc1ccccn1)S(=O)(=O)c1ccc(F)cc1` [Example 206, 4-Fluoro-N-methyl-N-(4-(pyridin-2-yl)but-3-ynyl)benzenesulfonamide] returned an IC50 below 10 µM.
Turning to `CN(CCC#Cc1ccccn1)S(=O)(=O)c1ccccc1Cl` [Example 207, 2-Chloro-N-methyl-N-(4-(pyridin-2-yl)but-3-ynyl)benzenesulfonamide], the IC50 in data set [1] is below 10 µM.
Still for that read-out and setting: under `CN(CCC#Cc1cccc(CF)n1)C(=O)c1ccccc1Cl` [Example 208, 2-Chloro-N-(4-(6-(fluoromethyl)pyridin-2-yl)but-3-ynyl)-N-methylbenzamide] stands below 0.5 µM; under `CN(CCC#Cc1cccc(CF)n1)S(=O)(=O)c1ccccc1Cl` [Example 209, 2-Chloro-N-(4-(6-(fluoromethyl)pyridin-2-yl)but-3-ynyl)-N-methylbenzene sulfonamide], below 0.05 µM; under `CN(CCC#Cc1ccccn1)C(=O)c1ccccc1` [Example 211, N-Methyl-N-(4-(pyridin-2-yl)but-3-ynyl)benzamide], below 10 µM.
Still for that read-out and setting: the value for `Cc1ccccc1C(=O)N(C)CCC#Cc1ccccn1` [Example 212, N,2-Dimethyl-N-(4-(pyridin-2-yl)but-3-ynyl)benzamide] was below 10 µM.
Same read-out and setting: the value for `CN(CCC#Cc1ccccn1)C(=O)c1ccccc1F` [Example 213, 2-Fluoro-N-methyl-N-(4-(pyridin-2-yl)but-3-ynyl)benzamide] was below 10 µM; that for `Cc1cccc(C(=O)N(C)CCC#Cc2ccccn2)c1` [Example 215, N,3-Dimethyl-N-(4-(pyridin-2-yl)but-3-ynyl)benzamide] was below 10 µM; that for `COc1ccccc1C(=O)N(C)CCC#Cc1ccccn1` [Example 216, 2-Methoxy-N-methyl-N-(4-(pyridin-2-yl)but-3-ynyl)benzamide] was below 10 µM.
On to `CN(CCC#Cc1ccccn1)C(=O)c1cccc(F)c1F` [Example 217, 2,3-Difluoro-N-methyl-N-(4-(pyridin-2-yl)but-3-ynyl)benzamide], for which the IC50 in data set [1] is below 10 µM.
The same measure, in the same setting: the value for `CN(CCC#Cc1ccccn1)C(=O)c1c(Cl)cccc1Cl` [Example 218, 2,6-Dichloro-N-methyl-N-(4-(pyridin-2-yl)but-3-ynyl)benzamide] was below 0.5 µM; that for `Cc1noc(C)c1S(=O)(=O)N(C)CCC#Cc1ccccn1` [Example 219, N,3,5-Trimethyl-N-(4-(pyridin-2-yl)but-3-ynyl)isoxazole-4-sulfonamide] was below 10 µM; that for `C(#Cc1ccccn1)CCNc1nc2ccccc2s1` [Example 220, N-(4-(Pyridin-2-yl)but-3-ynyl)benzo[d]thiazol-2-amine] was below 10 µM.
On the same count and under the same terms, the value for `Cn1c(=O)n(CCCC#Cc2ccccn2)c2ccccc21` [Example 221, 1-Methyl-3-(5-(pyridin-2-yl)pent-4-ynyl)-1H-benzo[d]imidazol-2(3H)-one] was below 10 µM.
Same read-out and setting: the value for `FCc1cccc(C#CCCc2cn3cccc(Br)c3n2)n1` [Example 225, 8-Bromo-2-(4-(6-(fluoromethyl)pyridin-2-yl)but-3-ynyl)-imidazo[1,2-a]pyridine] was below 0.05 µM.
In data set [1], `FCc1cccc(C#CCCc2cn3cccc(-c4ccccc4)c3n2)n1` [Example 227, 2-(4-(6-(Fluoromethyl)pyridin-2-yl)but-3-ynyl)-8-phenyl-imidazo[1,2-a]pyridine] displayed an IC50 below 10 µM.
Turning to `Cc1csc(C#CCCn2nc3ccccc3n2)n1` [Example 229, 2-(4-(4-Methylthiazol-2-yl)but-3-ynyl)-2H-benzo[d][1,2,3]triazole], the melting point fell in the range of 78 to 80 °C.
`O=C(OCCC#Cc1ccccn1)c1ccccc1Cl` [Example 235, 4-(Pyridin-2-yl)but-3-ynyl 2-chlorobenzoate] had an IC50 in data set [1] below 0.05 µM.
Still for that read-out and setting: under `O=C(OCCC#Cc1ccccn1)c1cccc(Cl)c1` [Example 236, 4-(Pyridin-2-yl)but-3-ynyl 3-chlorobenzoate] stands below 0.05 µM; under `O=c1c2ccccc2cnn1CCCCC#Cc1ccccn1` [Example 243, 2-(6-(Pyridin-2-yl)hex-5-ynyl)phthalazin-1(2H)-one], below 10 µM; under `O=C(NCCC#Cc1cccc(CF)n1)c1ccccc1Cl` [Example 247, 2-Chloro-N-(4-(6-(fluoromethyl)pyridin-2-yl)but-3-ynyl)benzamide], below 10 µM.
For the compound `FCc1cccc(C#CCCn2ncc(-c3ccc(F)cc3)n2)n1` [Example 250, 2-(Fluoromethyl)-6-(4-(4-(4-fluorophenyl)-2H-1,2,3-triazol-2-yl)but-1-ynyl)pyridine], the melting point lay in the range of 84 to 86 °C.
Regarding `Cc1cc(F)ccc1NC(=O)CCC#Cc1cccc(CF)n1` [Example 252, 5-(6-(Fluoromethyl)pyridin-2-yl)-N-(4-fluoro-2-methyl-phenyl)pent-4-ynamide], the melting point was 122 to 125 °C.
Still for that read-out and setting: under `FCc1cccc(C#CCCn2cc(-c3ccc(F)cc3)nn2)n1` [Example 254, 2-(Fluoromethyl)-6-(4-(4-(4-fluorophenyl)-1H-1,2,3-triazol-1-yl)but-1-ynyl)pyridine] stands 100 to 103 °C.
The same measure, in the same setting: under `Cc1c(-c2ccc(F)cc2)nnn1CCC#Cc1ccccn1` [Example 258, 2-(4-(4-(4-Fluorophenyl)-5-methyl-1H-1,2,3-triazol-1-yl)but-1-ynyl)pyridine] stands 130 to 131 °C.
